Experimental findings from paper PMC7180948, “New Insights into 4-Anilinoquinazolines as Inhibitors of Cardiac Troponin I–Interacting Kinase (TNNi3K)” (Molecules, 2020) are described below.

Molecules are shown by their SMILES.

What all share (experiment): biochemical
What all share (set-up): KINOMEscan competition binding panel (Eurofins DiscoverX), single concentration, percent inhibition
Holding throughout (conditions): read-out: 15 at 1 µM % inhibition

The target in experiment [1] is T1, ABL1(F317I)-phosphorylated (Homo sapiens, UniProt P00519, F317I).
T1 construct: phosphorylated
An outline of the steps:
(§1)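 Selectivity profile from a KINOMEscan run against >400 human kinases; test concentration 1 µM.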

Experiment [2] deals with AKT3 (Homo sapiens, UniProt Q9Y243). An outline of the steps: as §1
In experiment [3] the target is ALK(C1156Y) (Homo sapiens, UniProt Q9UM73, C1156Y). The method in brief: as §1
The target of experiment [4] is AURKC (Homo sapiens, UniProt Q9UQB9). An outline of the steps:
as §1

The target in experiment [5] is AXL (Homo sapiens, UniProt P30530). The method in brief:
as §1

The target of experiment [6] is CAMK1G (Homo sapiens, UniProt Q96NX5). The method in brief:
as §1

Experiment [7] deals with CDK2 (Homo sapiens, UniProt P24941). The method in brief: as §1
For experiment [8], the target named is CDK7 (Homo sapiens, UniProt P50613). An outline of the steps:
as §1

For experiment [9], the target named is CHEK2 (Homo sapiens, UniProt O96017). The method in brief:
as §1

In experiment [10] the target is CSNK1A1L (Homo sapiens, UniProt Q8N752). The method in brief: as §1
In experiment [11] the target is T2, CTK (Homo sapiens, UniProt P42679).
T2 construct: gene MATK
The method in brief: as §1

The target in experiment [12] is T3, DCAMKL1 (Homo sapiens, UniProt O15075).
T3 construct: gene DCLK1
An outline of the steps: as §1

Experiment [13] concerns the target KIT(D816H) (Homo sapiens, UniProt P10721, D816H). An outline of the steps:
as §1

Experiment [14] addresses KIT(V559D,V654A) (Homo sapiens, UniProt P10721, V559D/V654A). An outline of the steps:
as §1

For experiment [15], the target named is KIT-autoinhibited (Homo sapiens, UniProt P10721). An outline of the steps:
as §1

The target in experiment [16] is MAP3K15 (Homo sapiens, UniProt Q6ZN16). An outline of the steps:
as §1

The target in experiment [17] is NEK5 (Homo sapiens, UniProt Q6P3R8). The method in brief:
as §1

In experiment [18] the target is PAK2 (Homo sapiens, UniProt Q13177). The method in brief: as §1
Experiment [19] deals with T4, PAK7 (Homo sapiens, UniProt Q9P286).
T4 construct: gene PAK5
The method in brief: as §1

The target in experiment [20] is T5, PIK4CB (Homo sapiens, UniProt Q9UBF8).
T5 construct: gene PI4KB
An outline of the steps: as §1

Experiment [21] addresses RIPK4 (Homo sapiens, UniProt P57078). The method in brief: as §1
Experiment [22] concerns the target TESK1 (Homo sapiens, UniProt Q15569). An outline of the steps: as §1
Experiment [23] addresses TTK (Homo sapiens, UniProt P33981). The method in brief: as §1
Experiment [24] deals with T6, p38-beta (Homo sapiens, UniProt Q15759).
T6 construct: gene MAPK11
The method in brief: as §1

Sequence of CDK7 (P50613 whole entry): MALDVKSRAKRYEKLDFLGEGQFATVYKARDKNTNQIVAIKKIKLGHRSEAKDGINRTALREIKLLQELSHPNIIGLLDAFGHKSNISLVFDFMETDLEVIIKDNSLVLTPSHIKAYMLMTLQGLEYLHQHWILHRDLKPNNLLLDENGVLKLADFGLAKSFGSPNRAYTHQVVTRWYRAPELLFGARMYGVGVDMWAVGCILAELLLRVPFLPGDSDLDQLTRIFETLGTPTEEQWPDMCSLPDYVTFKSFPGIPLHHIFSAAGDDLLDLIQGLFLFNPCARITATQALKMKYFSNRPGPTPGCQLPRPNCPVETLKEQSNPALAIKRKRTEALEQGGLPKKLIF
Sequence of AKT3 (Q9Y243 whole entry): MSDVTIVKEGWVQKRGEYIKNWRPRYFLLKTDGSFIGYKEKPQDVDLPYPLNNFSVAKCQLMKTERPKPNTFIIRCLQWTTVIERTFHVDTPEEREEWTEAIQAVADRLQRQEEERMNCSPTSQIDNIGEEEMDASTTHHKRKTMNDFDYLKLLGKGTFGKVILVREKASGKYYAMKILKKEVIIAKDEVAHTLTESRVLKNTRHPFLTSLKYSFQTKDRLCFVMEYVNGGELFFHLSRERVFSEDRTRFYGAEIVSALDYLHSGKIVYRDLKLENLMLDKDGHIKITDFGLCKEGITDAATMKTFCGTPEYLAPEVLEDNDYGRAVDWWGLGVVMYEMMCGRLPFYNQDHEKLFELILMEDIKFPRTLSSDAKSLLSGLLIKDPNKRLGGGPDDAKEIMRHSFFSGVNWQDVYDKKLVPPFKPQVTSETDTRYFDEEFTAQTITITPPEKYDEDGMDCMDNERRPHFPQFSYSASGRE
Sequence of TESK1 (Q15569 whole entry): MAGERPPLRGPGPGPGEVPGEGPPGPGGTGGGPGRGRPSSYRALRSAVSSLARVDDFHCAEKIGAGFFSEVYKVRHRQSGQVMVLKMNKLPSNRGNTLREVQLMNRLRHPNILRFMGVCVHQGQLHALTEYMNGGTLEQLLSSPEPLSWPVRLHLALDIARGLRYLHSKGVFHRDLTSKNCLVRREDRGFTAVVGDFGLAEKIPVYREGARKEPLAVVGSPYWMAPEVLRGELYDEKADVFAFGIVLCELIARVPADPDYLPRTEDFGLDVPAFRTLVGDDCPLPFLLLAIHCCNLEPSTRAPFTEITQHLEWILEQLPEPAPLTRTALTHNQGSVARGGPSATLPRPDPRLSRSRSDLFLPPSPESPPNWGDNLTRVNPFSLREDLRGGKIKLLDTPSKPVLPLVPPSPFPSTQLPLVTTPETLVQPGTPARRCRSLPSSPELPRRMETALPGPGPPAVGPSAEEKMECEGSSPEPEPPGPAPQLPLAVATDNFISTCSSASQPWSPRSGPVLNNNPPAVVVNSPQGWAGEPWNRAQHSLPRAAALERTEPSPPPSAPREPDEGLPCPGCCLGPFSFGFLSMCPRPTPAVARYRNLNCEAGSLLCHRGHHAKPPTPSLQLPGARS
Sequence of TTK (P33981 whole entry): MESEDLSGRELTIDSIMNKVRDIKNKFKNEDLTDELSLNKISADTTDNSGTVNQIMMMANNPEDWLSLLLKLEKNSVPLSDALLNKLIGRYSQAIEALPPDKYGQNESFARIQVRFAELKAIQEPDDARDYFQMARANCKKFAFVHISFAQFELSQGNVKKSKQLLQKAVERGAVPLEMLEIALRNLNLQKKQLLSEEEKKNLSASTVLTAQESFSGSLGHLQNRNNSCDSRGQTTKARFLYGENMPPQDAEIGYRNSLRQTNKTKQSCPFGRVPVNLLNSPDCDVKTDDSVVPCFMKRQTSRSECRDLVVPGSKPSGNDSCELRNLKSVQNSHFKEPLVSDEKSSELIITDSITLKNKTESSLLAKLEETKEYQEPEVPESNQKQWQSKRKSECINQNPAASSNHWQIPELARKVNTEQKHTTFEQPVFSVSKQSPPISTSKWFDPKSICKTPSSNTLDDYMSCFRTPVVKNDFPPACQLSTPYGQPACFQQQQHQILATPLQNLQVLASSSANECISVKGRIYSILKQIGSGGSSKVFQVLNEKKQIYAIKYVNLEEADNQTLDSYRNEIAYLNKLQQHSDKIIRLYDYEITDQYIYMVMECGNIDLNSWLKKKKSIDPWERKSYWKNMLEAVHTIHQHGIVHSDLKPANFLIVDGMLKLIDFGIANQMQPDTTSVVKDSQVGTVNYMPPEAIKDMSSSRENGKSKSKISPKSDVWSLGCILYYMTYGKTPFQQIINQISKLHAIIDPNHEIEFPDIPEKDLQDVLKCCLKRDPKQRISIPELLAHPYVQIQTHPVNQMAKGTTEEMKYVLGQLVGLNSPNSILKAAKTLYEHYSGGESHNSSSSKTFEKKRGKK
Sequence of AURKC (Q9UQB9 whole entry): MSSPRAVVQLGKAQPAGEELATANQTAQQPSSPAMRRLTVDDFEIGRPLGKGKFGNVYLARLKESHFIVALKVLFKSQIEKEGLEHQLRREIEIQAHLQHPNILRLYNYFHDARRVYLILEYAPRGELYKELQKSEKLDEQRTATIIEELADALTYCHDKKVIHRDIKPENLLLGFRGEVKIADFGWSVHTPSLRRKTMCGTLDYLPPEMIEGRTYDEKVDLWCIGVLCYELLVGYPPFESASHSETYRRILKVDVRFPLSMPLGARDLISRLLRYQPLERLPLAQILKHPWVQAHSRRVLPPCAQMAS
Sequence of CHEK2 (O96017 whole entry): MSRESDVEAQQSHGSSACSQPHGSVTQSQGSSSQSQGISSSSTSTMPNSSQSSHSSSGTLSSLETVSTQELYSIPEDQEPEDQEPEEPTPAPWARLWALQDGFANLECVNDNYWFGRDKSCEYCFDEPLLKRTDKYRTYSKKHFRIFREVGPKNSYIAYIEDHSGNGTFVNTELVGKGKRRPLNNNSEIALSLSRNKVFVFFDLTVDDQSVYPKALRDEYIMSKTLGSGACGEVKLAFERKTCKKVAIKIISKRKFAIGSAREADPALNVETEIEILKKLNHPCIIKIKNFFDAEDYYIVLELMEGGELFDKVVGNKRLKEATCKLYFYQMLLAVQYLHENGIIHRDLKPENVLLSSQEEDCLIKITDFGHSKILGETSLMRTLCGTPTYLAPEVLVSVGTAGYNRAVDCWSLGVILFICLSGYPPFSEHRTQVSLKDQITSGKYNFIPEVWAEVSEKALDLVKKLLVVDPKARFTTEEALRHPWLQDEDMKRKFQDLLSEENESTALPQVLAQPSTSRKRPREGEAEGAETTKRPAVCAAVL
T2 sequence (P42679 whole entry): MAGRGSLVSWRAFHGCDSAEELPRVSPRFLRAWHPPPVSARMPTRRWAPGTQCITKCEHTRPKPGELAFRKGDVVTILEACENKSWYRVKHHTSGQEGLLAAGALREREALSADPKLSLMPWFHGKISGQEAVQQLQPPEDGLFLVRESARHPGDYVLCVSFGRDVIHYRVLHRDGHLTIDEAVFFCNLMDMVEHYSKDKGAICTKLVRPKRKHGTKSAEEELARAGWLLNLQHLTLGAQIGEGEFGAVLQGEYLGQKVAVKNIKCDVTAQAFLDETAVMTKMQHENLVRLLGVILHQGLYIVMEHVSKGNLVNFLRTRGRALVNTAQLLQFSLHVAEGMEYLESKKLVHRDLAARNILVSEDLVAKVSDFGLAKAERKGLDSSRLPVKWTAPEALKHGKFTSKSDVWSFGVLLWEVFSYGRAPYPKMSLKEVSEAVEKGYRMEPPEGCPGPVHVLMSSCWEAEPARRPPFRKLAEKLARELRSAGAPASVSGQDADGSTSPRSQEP
Sequence of RIPK4 (P57078 whole entry): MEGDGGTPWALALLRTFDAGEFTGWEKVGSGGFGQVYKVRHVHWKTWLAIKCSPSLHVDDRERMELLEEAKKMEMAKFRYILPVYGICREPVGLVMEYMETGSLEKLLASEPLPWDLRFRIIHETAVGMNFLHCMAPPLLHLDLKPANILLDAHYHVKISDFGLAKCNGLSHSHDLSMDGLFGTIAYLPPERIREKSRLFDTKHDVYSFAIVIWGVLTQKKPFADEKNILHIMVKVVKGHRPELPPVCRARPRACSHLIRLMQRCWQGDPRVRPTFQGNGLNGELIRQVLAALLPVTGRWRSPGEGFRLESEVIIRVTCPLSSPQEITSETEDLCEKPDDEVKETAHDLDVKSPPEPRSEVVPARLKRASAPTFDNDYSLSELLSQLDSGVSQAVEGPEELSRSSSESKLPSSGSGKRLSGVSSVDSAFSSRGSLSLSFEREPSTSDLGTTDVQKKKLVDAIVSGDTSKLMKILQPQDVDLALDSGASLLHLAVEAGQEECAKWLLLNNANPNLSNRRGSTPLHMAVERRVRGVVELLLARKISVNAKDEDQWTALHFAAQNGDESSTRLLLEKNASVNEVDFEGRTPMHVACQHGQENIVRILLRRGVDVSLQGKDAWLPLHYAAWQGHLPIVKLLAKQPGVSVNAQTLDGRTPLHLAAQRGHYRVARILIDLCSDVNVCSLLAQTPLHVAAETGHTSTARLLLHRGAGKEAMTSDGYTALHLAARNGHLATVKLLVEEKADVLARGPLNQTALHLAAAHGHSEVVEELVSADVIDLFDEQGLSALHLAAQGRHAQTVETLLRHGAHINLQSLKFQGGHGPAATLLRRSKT
T6 sequence (Q15759 whole entry): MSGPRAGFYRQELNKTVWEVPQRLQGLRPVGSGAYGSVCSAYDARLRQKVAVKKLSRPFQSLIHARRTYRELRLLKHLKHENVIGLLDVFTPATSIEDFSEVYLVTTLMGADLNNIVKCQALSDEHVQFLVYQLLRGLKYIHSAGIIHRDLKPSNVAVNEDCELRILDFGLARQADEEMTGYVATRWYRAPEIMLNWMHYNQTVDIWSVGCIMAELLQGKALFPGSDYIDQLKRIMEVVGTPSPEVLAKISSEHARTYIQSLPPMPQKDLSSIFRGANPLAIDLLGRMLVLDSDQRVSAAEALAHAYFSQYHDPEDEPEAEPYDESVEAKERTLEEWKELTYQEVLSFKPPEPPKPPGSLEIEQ

`CNS(=O)(=O)c1ccc(N(C)C)c(Nc2nc(C)nc3cc(OC)c(OC)cc23)c1` [compound 15, 3-((6,7-dimethoxy-2-methylquinazolin-4-yl)amino)-4-(dimethylamino)-N-methylbenzenesulfonamide]: the inhibition at 1 µM in [1] amounted to 22%; in [2] it was 4%; in experiment [3], 4%; in experiment [4], 0%; in experiment [5] it was 9%; in experiment [6] it was 0%. Also, the inhibition at 1 µM in [7] turned out to be 0%; in experiment [8], 18%; in experiment [9], 13%; in experiment [10], 0%; in [11], 0%; in [12], 9%. Further, the inhibition at 1 µM in experiment [13] was determined as 16%; in [14], 0%; in experiment [15], 19%; in experiment [16], 28%; in experiment [17], 0%; in experiment [18], 14%. For the same compound, the inhibition at 1 µM in [19] was 0%; in experiment [20] it was 12%; in [21] it was 8%; in [22] it was 1%; in [23] it was 2%; in [24], 0%.

The inhibition is the percentage by which the read-out fell short of the control.
